Reference: patent US10745731B2, “Recombinant production method” (Hoffmann-La Roche Inc., priority 2015, dated 2020)
Read-outs that look alike come from different tables or passages of the source.

Experiments:
HEK293F cells [1] = type: cell-based
Method: (§1) To determine cell viability and viable cell density (VCD) 1 mL cultivation medium (cell suspension) was transferred into a Cedex low fouling sample cup. The cup was placed into a Vicell instrument (Beckman Coulter). The instrument mixes cells with trypan blue to stain dead cells. After analysis of 50 images VCD was calculated and viability was determined by calculation of the percentage of viable cell number in relation to the total cell number.

HDAC [2] = assay: in situ HDAC activity fluorimetric assay in HEK293F cells; type: cell-based, human
Method: HDAC activity was determined by the in situ HDAC activity fluorimetric assay kit (Biovision) according to the manufacturer's instructions. HEK293F cells were suspended in F17 medium (Life Technologies) to a cell density of 5*10^5 cells/mL. One hundred micro liter culture was pipetted per well into a black ELISA plate. The plate was centrifuged at 1000 g for 5 min. The supernatant was discarded and the cells were resuspended in a reaction mix containing F17 medium, 1% HDAC substrate and the molecule tested towards HDAC inhibitory activity. 10 μM Trichostatin A was used as a positive control and the basal HDAC activity was determined by re-suspending the cells in F17 medium with 1% HDAC substrate. Furthermore, cells were resuspended in F17 medium without HDAC substrate as a background control. The HDAC activity assay was performed in triplicates for every sample as well as every control. The 96-well plate was incubated at 36.5° C., 80% humidity and 7% CO2 for one hour. During this time, the active HDACs deacetylate the HDAC substrate what releases the quenched fluorescent signal of the substrate. After incubation the fluorescent signal was analyzed by the infinite fluorescence plate reader (TECAN). The fluorescence signal of the samples and controls was normalized by subtracting the fluorescence signal of the background control. It is assumed that the fluorescent signal arising from deacetylation of the substrate directly correlates with HDAC activity.

HEK293F cells [3] = assay: Transient gene expression in HEK293F cells: IgG concentration / titer (turbidimetric test); type: cell-based, human
Method: (§2) Transient gene expression is a 5-7 days lasting procedure. The standard operating procedure of this expression system is applicable to shaker flasks with various volumes of cell culture ranging from 80 mL to 2 L. First, half of the cell culture volume is seeded at a viable cell density (VCD) of 8*10^5 cells/mL. After two days of cultivation, cells are split to a VCD of about 12*10^5 cells/mL. On the next day, cells are transfected with a polyethylene imine (PEI)-based transfection reagent at a VCD between 20*10^5 cells/mL and 25*10^5 cells/mL. 3 hours after transfection, the production enhancer (if any) is added. 24 h after transfection, a feeding solution and a glucose bolus is supplemented to avoid the limitation of nutrients. Depending on cell viability, which should not decrease below 50%, the supernatant is harvested five to seven days post transfection and subjected to antibody purification.
(§3) To compare transient gene expression rates always the same plasmids encoding for one distinct antibody were co-transfected.
(§4) To co-transfect two plasmids equimolarily, the ratio of the base pair number of one plasmid to the total base pair number was calculated and multiplied with the total amount of DNA (0.5 mg/L). Plasmid one has a size of 10530 bp and plasmid two has a size of 7184 bp and were solved in water to a final concentration of 1 mg/mL. For transfection of one liter cell culture, 297 μL of plasmid one and 203 μl of plasmid two were dissolved in 40 mL phosphate buffered saline (PBS) at room temperature. 1.25 mL JetPEI® solution was added and the solution was mixed well. After incubation for 10-15 min., the mixture was added to the cells. The cells were transfected in a batch containing the whole cell culture necessary for every experiment to avoid variance arising from different transfection efficiencies.
(§5) 80 mL of the transfected cell culture batch was added to a 125 ml shaker flask. For every experiment, two or three 125 mL shaker flasks were used as biological replicates and treated the same way. Three hours after transfection, cells were split into 125 mL shaker flasks and the cellular treatments with small molecules or ligands were started. Basal protein expression was determined by untreated control samples. To compare samples with the standard operating procedure, cells were also treated with VPA to a final concentration of 4 mM or 3 mM. VPA and its analogues were dissolved in double distilled water. […] Tumor necrosis factor (TNF) alpha was reconstituted with PBS supplemented with 0.1% BSA. Flagellin was dissolved in sterile double distilled water. The applied molecules were not added to the cultivation directly, but diluted in 16 mL medium pre-warmed to 36.5° C. and added to the cultivation thereafter.
(§6) 24 h after transfection a feeding solution at 36.5° C. and 3 mg/mL glucose were added to the cultivation.
Total concentration of the transiently expressed antibody was determined by a turbidimetric test. One mL cell suspension was transferred into an Eppendorf cup and centrifuged for 10 min. at 10,000 rpm (9,300 g). The supernatant was transferred into a new cup and subjected to Cobas Integra 400 plus (Roche) analysis. With comparison to internal standard the absolute concentration was calculated.

HEK293F cells [4] = assay: Transient gene expression in HEK293F cells: cell specific productivity of the expressed antibody; type: cell-based, human; settings: for specific productivity after 96 hours: none 2.01
Method: HEK293F cells were cultivated in F17 medium (Life Technologies) in shaker flasks at 36.5° C., 7.0% CO2 and 80% humidity in a shaker incubator (Kuhner, Mytron). Cells were split every three to four days and were cultivated no longer than five weeks. To avoid overgrowth and to keep them in the exponential phase of growth, viable cell densities (VCD) never exceeded 60*10^5 cells/mL.
as §2, §3, §4, §5, §6, §1
Total concentration of the transiently expressed antibody was determined by a turbidimetric test. One mL cell suspension was transferred into an Eppendorf cup and centrifuged for 10 min. at 10,000 rpm (9,300 g).

HDAC [5] = settings: description from the literature; cited from earlier work

With `CCCC(CCC)C(=O)O` [valproic acid, 2-propylpentanoic acid] the “growth inhibition and cell death” value (HEK293F cells [1]; in contrast to other HDACi tested) was “induce growth inhibition and cell death”, the HDACi (HDAC [2]; 3 mM, N=3, FIG. 3A) was 58% and the HDAC inhibition (HDAC [2]; yes/no, summary table) was “yes”. The “relative IgG concentration” value (HEK293F cells [3]; 2 mM, VPA/2M2P combination study, none=100, N=3) was 217%, the “relative IgG concentration” value (HEK293F cells [3]; 2 mM, VPA/Quisinostat combination study, none=100, N=3) was 217% and the final titer (HEK293F cells [3]; 3 mM, none 39.8, N=3) was 68.8 mg/L. The relative titer (HEK293F cells [3]; 3 mM, none=100, N=1) was 188%, the “relative IgG concentration” value (HEK293F cells [3]; 4 mM, none=100, N=3, FIG. 6B) was 173% and the “relative IgG concentration” value (HEK293F cells [3]; 4 mM, none=100, N=3, FIG. 8B) was 173%. For the same molecule, the “relative IgG concentration” value (HEK293F cells [3]; 4 mM, none=100, N=3, FIG. 9B) was 173%, the “cell specific productivity with BAY11-7082 addition compared to the single treatment” value (HEK293F cells [4]; 15 μM BAY11-7082 added 24 h after transfection) was “significantly reduced” and the “specific productivity after 96 hours” value (HEK293F cells [4]; 3 mM, single treatment, N=3) was 4.92 pg/cell/day. For the same molecule, the activity at 500 µM (HEK293F cells [4]; Homo sapiens, HEK293F, 0.5 mM, sole enhancer, control=100, N=2, FIG. 1, read-out: relative cell specific productivity) was 184%, the activity at 1000 µM (HEK293F cells [4]; Homo sapiens, HEK293F, 1 mM, sole enhancer, control=100, N=2, FIG. 1, read-out: relative cell specific productivity) was 204% and the activity at 2000 µM (HEK293F cells [4]; Homo sapiens, HEK293F, 2 mM, VPA/2M2P combination study, none=100, N=3, read-out: relative cell specific productivity) was 278%. The activity at 2000 µM (HEK293F cells [4]; Homo sapiens, HEK293F, 2 mM, VPA/Quisinostat combination study, none=100, N=3, read-out: relative cell specific productivity) was 278%, the activity at 2000 µM (HEK293F cells [4]; Homo sapiens, HEK293F, 2 mM, sole enhancer, control=100, N=2, FIG. 1, read-out: relative cell specific productivity) was 246% and the activity at 3000 µM (HEK293F cells [4]; Homo sapiens, HEK293F, 3 mM, single treatment, none=100, N=3, read-out: relative cell specific productivity) was 237%. For the same molecule, the activity at 3000 µM (HEK293F cells [4]; Homo sapiens, HEK293F, 3 mM, sole enhancer, control=100, N=2, FIG. 1, read-out: relative cell specific productivity) was 284%, the activity at 3000 µM (HEK293F cells [4]; Homo sapiens, HEK293F, 3 mM, transfected control=100, N=3, FIG. 3B, read-out: relative cell specific productivity) was 316% and the activity at 4000 µM (HEK293F cells [4]; Homo sapiens, HEK293F, 4 mM, sole enhancer, control=100, N=2, FIG. 1, read-out: relative cell specific productivity) was 273%. For the same molecule, the activity at 6000 µM (HEK293F cells [4]; Homo sapiens, HEK293F, 6 mM, sole enhancer, control=100, N=2, FIG. 1, read-out: relative cell specific productivity) was 223%, the activity at 4000 µM (HEK293F cells [4]; Homo sapiens, HEK293F, employed concentration 4 mM, none=100, N=2, FIG. 2B, read-out: relative cell specific productivity) was 326% and the activity at 4000 µM (HEK293F cells [4]; Homo sapiens, HEK293F, employed concentration 4 mM, none=100, N=2, FIG. 4, read-out: relative cell specific productivity) was 315%. For the same molecule, the “Mean cell specific productivity” value (HEK293F cells [4]; conc. 3 mM, untreated 1.71) was 5.4 (3 mM) pg/cell/24 h and the “Effect on titer/SPR” value (HEK293F cells [4]; summary table, in words) was “strong”.

In the case of `CCCC(CCC)C(N)=O` [valpromide], the cytotoxicity (HEK293F cells [1]; 3 mM) is given as “cytotoxic”, the “toxicity (remark in productivity cell)” value (HEK293F cells [1]; employed concentration 3 mM) is given as “toxic” and the HDAC inhibitory activity (HDAC [5]) is given as “very weak to no HDAC inhibitory activity”. The TGE enhancement (HEK293F cells [4]; 2 mM, in words) was “Weak TGE enhancement”, the activity at 2000 µM (HEK293F cells [4]; Homo sapiens, HEK293F, employed concentration 2 mM, none=100, N=2, FIG. 4, read-out: relative cell specific productivity) was 155% and the activity at 3000 µM (HEK293F cells [4]; Homo sapiens, HEK293F, employed concentration 3 mM, none=100, N=2, FIG. 4, read-out: relative cell specific productivity) was 0%.

B1: Flagellin: Flagellin from Salmonella typhimurium, TLR5 agonist, NFκB activator (protein, UniProt P06179 2-495, looked up)
Flagellin: AQVINTNSLSLLTQNNLNKSQSALGTAIERLSSGLRINSAKDDAAGQAIANRFTANIKGLTQASRNANDGISIAQTTEGALNEINNNLQRVRELAVQSANSTNSQSDLDSIQAEITQRLNEIDRVSGQTQFNGVKVLAQDNTLTIQVGANDGETIDIDLKQINSQTLGLDTLNVQQKYKVSDTAATVTGYADTTIALDNSTFKASATGLGGTDQKIDGDLKFDDTTGKYYAKVTVTGGTGKDGYYEVSVDKTNGEVTLAGGATSPLTGGLPATATEDVKNVQVANADLTEAKAALTAAGVTGTASVVKMSYTDNNGKTIDGGLAVKVGDDYYSATQNKDGSISINTTKYTADDGTSKTALNKLGGADGKTEVVSIGGKTYAASKAEGHNFKAQPDLAEAAATTTENPLQKIDAALAQVDTLRSDLGAVQNRFNSAITNLGNTVNNLTSARSRIEDSDYATEVSNMSRAQILQQAGTSVLAQANQVPQNVLSLLR
With B1 the toxicity (HEK293F cells [1]; compared amongst NFκB activators) was “mildest toxicity”, the “relative IgG concentration” value (HEK293F cells [3]; 2 ng/mL, none=100, N=3, FIG. 6B) was 133% and the “relative IgG concentration” value (HEK293F cells [3]; 2 ng/mL, none=100, N=3, FIG. 8B) was 128%. The “relative cell specific productivity” value (HEK293F cells [4]; 2 ng/mL, none=100, N=3, FIG. 6A) was 135%, the “relative cell specific productivity” value (HEK293F cells [4]; 2 ng/mL, none=100, N=3, FIG. 8A) was 135% and the “specific productivity after 96 hours” value (HEK293F cells [4]; 2 ng/mL, single treatment, N=3) was 2.27 pg/cell/day. For the same molecule, the “relative cell specific productivity” value (HEK293F cells [4]; 2 ng/mL, single treatment, none=100, N=3) was 134%, the “relative cell specific productivity” value (HEK293F cells [4]; 10 ng/mL, none=100, N=2, FIG. 5) was 154% and the “TGE enhancement after BAY11-7082 treatment compared to the corresponding single treatment” value (HEK293F cells [4]; BAY11-7082 added 24 hours after stimulation) was “significantly reduced”.
